Measured values as given in patent publication US11834469B2, “AMP-activated protein kinase activating compounds and uses thereof” (Skylark Bioscience LLC, priority 2018, dated 2023).

System: HEK293 cells
Experiment: HEK293 Cytotoxicity Assay (CellTiterGlo, CC50)
Format: cell-based, human
Text: Some exemplary assays and examples for assessing therapeutic efficacy, e.g., anticancer effects, of exemplary compounds of the invention are described herein or are well known in the art. HEK293 is a human kidney cell line, and efficacy on HEK293 is considered to be predictive of usefulness for therapeutic treatment.
HEK293 cells were obtained from American Type Culture Collection (ATCC) (Rockville Md.). Cells were maintained in Dulbecco's modified Eagle's medium (DMEM) (Invitrogen, Carlsbad, Calif.) with 10% fetal bovine serum (FBS), 10 mM HEPES and 1 mM sodium pyruvate. Cells were grown at 37° C. in a humidified incubator with a gas phase of 5% CO2. Cells were grown for 24 hours in a Tripleflask (NUNC) to −95% confluence and then resuspended for dispensing at 125,000 cells/mL of DMEM, 10% FBS, 10 mM Hepes and 1 mM sodium pyruvate.
HEK293 cells were seeded in 96 well microtiter plates at 10000 cells/well. After 24 hours of incubation an equal volume of fresh media containing test compounds at given concentrations was added. Plates were then incubated and cells were allowed to proliferate for 48 hours at 37° C., 95% humidity, and 5% CO2. […] A solution of Promega CellTiterGlo (100 microliters) was added by Thermo Combi and the plates were allowed to sit for 10 minutes before reading on a Perkin-Elmer EnVision with US LUM settings for 0.1 sec per well. […]

Compound | activity on HEK293 cells (CC50, 50% cytotoxic concentration) (at 500 uM, 48 hours with compound) | potency relative to AICAR in HEK293 assay (HEK293 cells, times the potency of AICAR)
COP(=O)(OC)OC[C@H]1O[C@@H](n2cnc(C(N)=O)c2N)[C@H](O)[C@@H]1O [SB00024] | inactive | –
NC(=O)c1ncn([C@@H]2O[C@H](COP(=O)(O)Oc3ccc([N+](=O)[O-])cc3)[C@@H](O)[C@H]2O)c1N [SB00039] | – | roughly 100 times
